Molecules are shown by their SMILES. Active and inactive are the calls of the source. No rule for the calls is given here.

For one test, the target named is glutathione S-transferase (GST-GSH binding). The experiment in a line: GST–glutathione interaction disruption – biochemical, multiplex beads, flow cytometry, HPSMTB buffer, profiling panel (AID 1324).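 Also: glutathione beads loaded with GST-green fluorescent protein and no fluorescent Bim peptide.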 As to conditions: multiplex bead flow cytometry, MCF.
Consider `COc1cc(OC)c([N+](=O)[O-])cc1/C=N/NC(=O)c1ccncc1`, for which the EC50 result is “inactive”.
On the same count and under the same terms, the same measure for `Cc1ccc(O)c(NC2=C(Cl)C(=O)N(Cc3ccccc3)C2=O)c1`: “inactive”.

Staying with this test, now noted: multiplex bead flow cytometry, MCF, concentration not given here.
Regarding `CCc1ccc(NC(=O)CC2NCCNC2=O)cc1` (centres undefined), the percent span inhibition entry was “inactive”.
Consider `COc1ccccc1NC1=C(NC(C)=O)C(=O)c2ccccc2C1=O`, for which the percent span inhibition result is “inactive”.
Still for that read-out and setting: the same measure for `CCOc1ccc(-n2cc(-c3ccc(OC)c(OC)c3)[nH]c2=S)cc1`: “inactive”.
Still for that read-out and setting: the same measure for `CC1=C2C(CCS2(=O)=O)CC2(C1)C(=O)OC(C)(C)OC2=O` (centres undefined): “inactive”; for `Cc1ccc(Nc2nc(-c3ccccc3)c(CC(=O)O)s2)cc1`: “inactive”.
Consider `CCc1ccc(/C=C/C(=O)c2cc(Br)ccc(=O)c2O)cc1`, for which the percent span inhibition entry is “inactive”.
The same measure, in the same setting: the same measure for `COc1ccc(-c2nnc(SCC(=O)Nc3nc4ccccc4s3)n2C)cc1`: “inactive”; for `COc1ccccc1C1=Nc2cccc3cccc(c23)N1`: “inactive”.
Take `Cc1ccc(CC(=O)OCCNC(=O)c2cccnc2)cc1`: the percent span inhibition result is “inactive”.
Consider `NNC(=O)COc1ccccc1F`, for which the percent span inhibition entry was “inactive”.
`CC(C)c1ccc(/C=N/NC(=O)c2ccccc2Cl)cc1`: the percent span inhibition entry is “inactive”.
On the same count and under the same terms, the same measure for `O=C1N/C(=C/c2cccn2-c2ccccc2)C(=O)N1Cc1ccc(F)cc1`: “inactive”.
As to `CCCCCCn1nc(C(=O)Nc2nc3c(s2)CCCC3)c2ccccc2c1=O`, the percent span inhibition result is “inactive”.
With `O=C(O)CC/C(=C\c1cc([N+](=O)[O-])ccc1Cl)c1nc2ccccc2s1`, the percent span inhibition result was “inactive”.
Consider `OC(COc1ccc2cc(Br)ccc2c1)CN1CCOCC1` (centres undefined), for which the percent span inhibition result is “inactive”.
The same measure, in the same setting: with `CCOCCCn1c(N)c(C(=O)Nc2sc3c(c2C(=O)OC)CCCC3)c2nc3ccccc3nc21` the entry was “inactive”; with `CNc1nc2ccccc2n1/N=C/c1cccc(OC)c1OC`, “inactive”.
On to `O=C(/C=C/c1c(F)cccc1Cl)Nc1ccncc1`, for which the percent span inhibition result was “inactive”.
Same read-out and setting: the same measure for `CNC(CC(=O)c1ccc([N+](=O)[O-])cc1)C(Cl)(Cl)Cl` (centres undefined): “inactive”; for `S=C(NCCc1ccccc1)NCCc1ccccc1`: “inactive”; for `CC(C)=C1C(=O)NN(c2ccc(C)c(Cl)c2)C1=O`: “inactive”.
The same measure, in the same setting: with `CCN(CC)c1ccc(-c2nn3c(-c4cccnc4)nnc3s2)cc1` the entry was “inactive”; with `O=C(/C=C/c1ccc(-c2ccccc2[N+](=O)[O-])o1)c1ccccc1`, “inactive”.
The same measure, in the same setting: the same measure for `COc1ccc(C2CC(=O)C3=C(C2)Nc2ccccc2NC3c2coc3ccccc3c2=O)cc1OC` (centres undefined): “inactive”; for `CCNC(=S)Nc1cc(OCC)c(NC(=O)c2cccs2)cc1OCC`: “inactive”; for `CCN(CC)c1nc(N)nc(N(c2ccccc2)c2ccccc2)n1`: “inactive”.
On to `CC(=O)NC1=C(NC2CCS(=O)(=O)C2)C(=O)c2ccccc2C1=O` (centres undefined), for which the percent span inhibition result was “inactive”.
Same read-out and setting: the same measure for `COc1ccc(-n2cc(-c3ccc(OC)c(OC)c3)[nH]c2=S)cc1`: “inactive”; for `Cc1ccc(-c2ccc(/C=C/C(=O)c3ccccc3)o2)cc1`: “inactive”; for `C/C(=N\NC(=O)Cc1cccn1C)c1ccc2ccccc2c1`: “inactive”.
As for `O=C(Nc1cccc(C(F)(F)F)c1)c1ccc2nc(-c3ccco3)c(-c3ccco3)nc2c1`, the percent span inhibition result was “inactive”.
Still for that read-out and setting: the same measure for `CN1N=C(C(=O)N2CCCC(C(=O)c3cccc(C(F)(F)F)c3)C2)CCC1=O` (centres undefined): “inactive”.
With `Cc1cc(NC(=O)CCCC(=O)NCc2ccccc2)no1`, the percent span inhibition result is “inactive”.
The same measure, in the same setting: the same measure for `Cc1ccc(NC(=S)N2CCn3cccc3C2c2cccnc2)cc1` (centres undefined): “inactive”; for `Cc1cc(C)cc(-n2c(C)nc3cc(C(=O)O)ccc32)c1`: “inactive”; for `COCCNC(=O)CN1CCC(NC(=O)Nc2ccccc2)CC1`: “inactive”.
Consider `CCOC(=O)C1=C(Cc2ccc(OC)cc2)C(=O)c2ccccc2C1=O`, for which the percent span inhibition entry is “inactive”.
Still for that read-out and setting: the same measure for `CCCCN(C(=O)CCC(=O)Nc1cc(C)on1)C(C(=O)NC(C)(C)C)c1cccc(OC)c1OC` (centres undefined): “inactive”; for `Cc1ccc(-c2cc(C(=O)Nc3ccccc3C)c3ccccc3n2)o1`: “inactive”.
Still for that read-out and setting: the same measure for `Cc1cc(N2CCN(C)CC2)nc2ccc(NC(=S)N3CCN(c4cccc(Cl)c4)CC3)cc12`: “inactive”; for `Cc1cc(NC(=O)CSc2nnc(-c3cccnc3)n2Cc2ccccc2)no1`: “inactive”.
Regarding `c1ccc(-c2nc(N3CCOCC3)s[n+]2-c2ccccc2)cc1`, the percent span inhibition result is “inactive”.
Still for that read-out and setting: the same measure for `CN=c1scc(C)n1/N=C/c1ccc(O)c(O)c1O`: “inactive”.
The same measure, in the same setting: the same measure for `COCCNC(=S)Nc1cc(OC)c(OC)cc1C#N`: “inactive”; for `O=C(C1CCC(Cn2c(=S)[nH]c3ccccc3c2=O)CC1)N1CCN(c2ccccn2)CC1` (centres undefined): “inactive”.
Same read-out and setting: with `Fc1ccc(C2=Nn3c(Cc4ccccc4F)nnc3SC2)cc1` the entry was “inactive”; with `O=C1C(=O)c2ccc(-c3ccccc3)cc2-c2ccccc21`, “inactive”; with `Cc1ccc(C)c(/C=C/C(=O)c2ccccc(=O)c2O)c1`, “inactive”.
As for `O=C(Cc1ccccc1)OCCNC(=O)c1cccnc1`, the percent span inhibition result is “inactive”.
Turning to `CCOC(=O)c1nn(-c2ccccc2)c(C#N)c1N`, the percent span inhibition result is “inactive”.
On the same count and under the same terms, with `CCN1CCN(c2ccc(NC(=O)c3cccc4ncccc34)cc2)CC1` the entry was “inactive”.
On to `CN(CCO)c1cc(Sc2nc3ccccc3s2)c2nonc2c1[N+](=O)[O-]`, for which the percent span inhibition entry was “inactive”.
As for `Cc1ccc2nc3c(cc(C(N)=S)c(=N)n3CCCOC(C)C)c(=O)n2c1`, the percent span inhibition entry is “inactive”.
Same read-out and setting: with `Cc1occc1C(=O)NNC(=S)NCc1ccccc1` the entry was “inactive”.
On the same count and under the same terms, with `COc1ccc(N2C(=O)C(Cl)=C(Nc3ccccc3O)C2=O)cc1` the entry was “inactive”.
Still for that read-out and setting: the same measure for `Cc1ccc(-c2n[nH]c(=S)n2-c2ccccc2)cc1`: “inactive”; for `CN(CC(=O)O/N=C(\N)c1ccc([N+](=O)[O-])cc1)S(=O)(=O)c1ccccc1`: “inactive”; for `Cc1ccc(/C=C/C2=Cc3c(sc(NC(=O)CSc4n[nH]c(N)n4)c3C#N)C(C)(C)C2)o1`: “inactive”.
For the molecule `CC(=O)Nc1ccc(NC2=C(Cl)C(=O)c3ccccc3C2=O)cc1`, the percent span inhibition entry was “inactive”.
Regarding `COc1cc(N=c2ssnc2Cl)cc(OC)c1`, the percent span inhibition entry is “inactive”.
With `COc1ccc(/C=C(/C(=O)c2cccs2)N2C=CC=CC2=C(C#N)C#N)cc1`, the percent span inhibition result is “inactive”.
Same read-out and setting: with `COc1ccc(C2(NC(C)=O)CCN(C(=O)c3ccco3)CC2)cc1` the entry was “inactive”; with `CN1C2C=C3C(C#N)=C(N)C(C#N)(C#N)[C@@H](c4ccsc4)[C@@H]3C1CC2` (some centres undefined), “inactive”.
On the same count and under the same terms, with `CCOC(=O)c1ccc(N=c2ssnc2Cl)cc1` the entry was “inactive”; with `Cc1ccc(-c2nc3c(c(=O)[nH]c(=O)n3Cc3ccccc3)n2C)o1`, “inactive”.
On the same count and under the same terms, with `COc1cccc2c(SCC(=O)N/N=C/c3ccc(O)cc3O)cc(C)nc12` the entry was “inactive”; with `CSc1ccccc1NC(=O)CN(C)CC(=O)Nc1ccc(N2CCOCC2)cc1`, “inactive”; with `CN(Cc1cccs1)C(=O)CCc1c[nH]c2ccccc12`, “inactive”.
On to `O=C(C[n+]1ccc(-c2nnc3n2CCC3)cc1)c1ccc(Cl)c(Cl)c1`, for which the percent span inhibition result was “inactive”.
On to `CC(C)(C)NC(=O)COc1ccc(CNc2ccc3[nH]c(=O)[nH]c3c2)cc1`, for which the percent span inhibition entry was “inactive”.
Still for that read-out and setting: the same measure for `O=C(Nc1ccccc1)Nc1ccc2ncoc2c1`: “inactive”; for `Cc1ccc(C)c(Oc2ncnc(N)c2[N+](=O)[O-])c1`: “inactive”.
The same measure, in the same setting: the same measure for `Cc1ccc(NN2C(=O)C=CC2=O)cc1`: “inactive”; for `CCOc1cccc(CNc2ccc(O)cc2)c1OCc1ccccc1Cl`: “inactive”.
As to `CCCCC(=O)Nc1ccc(C(=O)N2CCC(C(=O)OCC)CC2)cc1`, the percent span inhibition entry was “inactive”.
On the same count and under the same terms, the same measure for `COC(=O)Cc1cc(=O)[nH]c(Nc2nc3ccccc3o2)n1`: “inactive”; for `COc1ccc(NC(=O)c2cccs2)cc1`: “inactive”.
Same read-out and setting: the same measure for `Cc1ccc(C(=O)N/N=C2/NC(=O)CC(C(=O)Nc3ccccc3)S2)cc1` (centres undefined): “inactive”; for `COc1c(F)c(F)c(C(=O)Nc2ccccc2N2CCN(C(=O)C(C)C)CC2)c(F)c1F`: “inactive”.
As for `Cc1ccc(CNc2ccc3c(c2)OCO3)c(C)c1`, the percent span inhibition entry was “inactive”.
On the same count and under the same terms, the same measure for `CCOc1ccccc1CNc1ccc(O)cc1`: “inactive”; for `Cc1ccc(-c2cc(C(=O)Nc3nccs3)c3ccccc3n2)o1`: “inactive”; for `CC(=O)OCCCNc1cc(Sc2nc3ccccc3s2)c2nonc2c1[N+](=O)[O-]`: “inactive”.
On the same count and under the same terms, with `Cc1ccc(/C=N/NC(=O)CSc2nnc(-c3ccc(Cl)cc3)n2-c2ccccc2)o1` the entry was “inactive”.
On to `O=C(CSc1nc2ccsc2c(=O)n1Cc1ccc(C(=O)O)cc1)NCC1CCCO1` (centres undefined), for which the percent span inhibition result is “inactive”.
The same measure, in the same setting: with `COCCN=c1scc(-c2cccs2)n1/N=C/c1ccc(O)c(O)c1O` the entry was “inactive”; with `COc1cccc2c(SCC(=O)N/N=C/c3ccccc3)cc(C)nc12`, “inactive”.

Source of the values: PubChem BioAssay AID1324 (NMMLSC, 2008).
